Data from BigSolDB 2.1.

CCOc1ccc(C2NC(=O)NC=C2C(=O)c2cc(OC)c(OC)c(OC)c2)cc1 (stereo not given)
solubility (mole fraction)
Settings | 298.15 K | 303.15 K | 308.15 K | 313.15 K | 318.15 K
in DMSO | 0.00547 | 0.0065 | 0.00754 | 0.00879 | 0.00996
in ethanol | 0.000294 | 0.000402 | 0.000516 | 0.000654 | 0.000802
in ethyl acetate | 0.00143 | 0.00174 | 0.00222 | 0.00286 | 0.00345
in ethylene glycol | 0.000397 | 0.000543 | 0.000697 | 0.000866 | 0.00107
in isopropanol | 0.000469 | 0.000619 | 0.000772 | 0.000958 | 0.00113
in methanol | 0.000252 | 0.000328 | 0.000407 | 0.00049 | 0.000577
in n-butanol | 0.000672 | 0.000859 | 0.00105 | 0.00125 | 0.00146
in propylene glycol | 0.000504 | 0.000682 | 0.00087 | 0.00107 | 0.00133
in sec-butanol | 0.00067 | 0.000855 | 0.00104 | 0.00124 | 0.00145
in transcutol | 0.00301 | 0.00367 | 0.00441 | 0.00519 | 0.00624
in water | 7.87e-06 | 1.09e-05 | 1.51e-05 | 2.02e-05 | 2.54e-05

Settings | solubility (mole fraction)
in PEG-400, 298.15 K | 0.00521
in PEG-400, 303.15 K | 0.00675
in PEG-400, 308.15 K | 0.00831
in PEG-400, 313.15 K | 0.0103
in PEG-400, 318.15 K | 0.0121
